Experimental data published in US10913727B2, “Modulators of the integrated stress pathway” (Calico Life Sciences LLC, priority 2016, dated 2021).

The molecules below were run on HEK293T cells carrying the ATF4 luciferase reporter (assay: ATF4-Luc assay, in vitro model of Vanishing Cell White Matter Disease (VWMD)). Conditions: Homo sapiens, HEK-293T, 1 μg/mL tunicamycin, 7 hours, One Glo luminescence.
Format: cell-based
Method in brief: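 Stable HEK293T line with human ATF4 5′-UTR–firefly luciferase reporter treated with 1 μg/mL tunicamycin plus 200 nM compound for 7 h. Luminescence read; EC50 derived.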
Work on `Cc1cc(C(=O)NC23CCC(NC(=O)COc4ccc(Cl)c(F)c4)(CC2)CC3F)on1` (stereo not drawn) [Compound 374, N-{4-[2-(4-chloro-3-fluorophenoxy)acetamido]-2-fluorobicyclo[2.2.2]octan-1-yl}-3-methyl-1,2-oxazole-5-carboxamide] yielded an EC50 greater than 2000 nM.
In the case of `O=C(COc1ccc(Cl)c(F)c1)NC12CCC(NC(=O)c3ccc(N4CCCC4)cn3)(CC1)CC2O` (stereo not drawn) [Compound 940, N-{4-[2-(4-chloro-3-fluorophenoxy)acetamido]-3-hydroxybicyclo[2.2.2]octan-1-yl}-5-(pyrrolidin-1-yl)pyridine-2-carboxamide], the EC50 is reported as 50 to 250 nM.
`COCc1cccc(C(=O)NC23CC(NC(=O)COc4ccc(Cl)c(F)c4)(C2)C3)n1` [Compound 174, N-{3-[2-(4-chloro-3-fluorophenoxy)acetamido]bicyclo[1.1.1]pentan-1-yl}-6-(methoxymethyl)pyridine-2-carboxamide] showed an EC50 of 250 to 1000 nM.
`COc1ccccc1-c1cc(C(=O)NC23CCC(NC(=O)COc4ccc(Cl)c(F)c4)(CC2)C(O)C3)on1` (stereo not drawn) [Compound 397, N-{4-[2-(4-chloro-3-fluorophenoxy)acetamido]-3-hydroxybicyclo[2.2.2]octan-1-yl}-3-(2-methoxyphenyl)-1,2-oxazole-5-carboxamide] gave an EC50 of 50 to 250 nM.
With `O=C(COc1ccc(Cl)c(F)c1)NC12CC(NC(=O)c3ccncn3)(C1)C2` [Compound 187, N-{3-[2-(4-chloro-3-fluorophenoxy)acetamido]bicyclo[1.1.1]pentan-1-yl}pyrimidine-4-carboxamide] the EC50 was 1000 to 2000 nM.
For `CN(C)Cc1cccc(C(=O)NC23CC(NC(=O)COc4ccc(Cl)c(F)c4)(C2)C3)c1` [Compound 553, N-{3-[2-(4-chloro-3-fluorophenoxy)acetamido]bicyclo[1.1.1]pentan-1-yl}-3-[(dimethylamino)methyl]benzamide], the EC50 was greater than 2000 nM.
With `NC(=O)c1ccncc1C(=O)NC12CC(NC(=O)COc3ccc(Cl)c(F)c3)(C1)C2` [Compound 826, N^3-{3-[2-(4-chloro-3-fluorophenoxy)acetamido]bicyclo[1.1.1]pentan-1-yl}pyridine-3,4-dicarboxamide] the EC50 was 1000 to 2000 nM.
`O=C(COc1ccc(C(F)(F)F)nc1)NC12CC(Nc3ccnc4cc(Cl)ccc34)(C1)C2` [Compound 385, N-{3-[(7-chloroquinolin-4-yl)amino]bicyclo[1.1.1]pentan-1-yl}-2-{[6-(trifluoromethyl)pyridin-3-yl]oxy}acetamide] showed an EC50 of 250 to 1000 nM.
For `Cn1nc2ccccc2c1C(=O)NC12CC(NC(=O)COc3ccc(Cl)c(F)c3)(C1)C2` [Compound 896, N-{3-[2-(4-chloro-3-fluorophenoxy)acetamido]bicyclo[1.1.1]pentan-1-yl}-2-methyl-2H-indazole-3-carboxamide], the EC50 was 1000 to 2000 nM.
With `O=C(COc1ccc(Cl)c(F)c1)NC12CC(NC(=O)c3ncoc3C3CC3)(C1)C2` [Compound 769, N-{3-[2-(4-chloro-3-fluorophenoxy)acetamido]bicyclo[1.1.1]pentan-1-yl}-5-cyclopropyl-1,3-oxazole-4-carboxamide] the EC50 was greater than 2000 nM.
Work on `Cc1ccc(C(=O)NC23CC(NC(=O)COc4ccc(Cl)c(F)c4)(C2)C3)nn1` [Compound 137, N-{3-[2-(4-chloro-3-fluorophenoxy)acetamido]bicyclo[1.1.1]pentan-1-yl}-6-methylpyridazine-3-carboxamide] yielded an EC50 of 1000 to 2000 nM.
`Cc1ccoc1C(=O)NC12CC(NC(=O)COc3ccc(Cl)c(F)c3)(C1)C2` [Compound 545, N-{3-[2-(4-chloro-3-fluorophenoxy)acetamido]bicyclo[1.1.1]pentan-1-yl}-3-methylfuran-2-carboxamide] showed an EC50 of 250 to 1000 nM.
In the case of `Cc1cncc(C(=O)NC23CC(NC(=O)COc4ccc(Cl)c(F)c4)(C2)C3)n1` [Compound 650, N-{3-[2-(4-chloro-3-fluorophenoxy)acetamido]bicyclo[1.1.1]pentan-1-yl}-6-methylpyrazine-2-carboxamide], the EC50 is reported as 50 to 250 nM.
`O=C(COc1ccc(Cl)c(F)c1)NC12CC(NC(=O)c3ccoc3)(C1)C2` [Compound 305, N-{3-[2-(4-chloro-3-fluorophenoxy)acetamido]bicyclo[1.1.1]pentan-1-yl}furan-3-carboxamide] gave an EC50 of 250 to 1000 nM.
With `N#Cc1ccc(C(=O)NC23CCC(NC(=O)COc4ccc(Cl)c(F)c4)(CC2)C(O)C3)nc1` (stereo not drawn) [Compound 937, N-{4-[2-(4-chloro-3-fluorophenoxy)acetamido]-3-hydroxybicyclo[2.2.2]octan-1-yl}-5-cyanopyridine-2-carboxamide] the EC50 was less than 50 nM.
In the case of `Cc1cc(C(=O)N(C)C23CCC(NC(=O)COc4ccc(Cl)c(F)c4)(CC2)[C@@H](O)C3)on1` [Compound 706, N-{(3S)-4-[2-(4-chloro-3-fluorophenoxy)acetamido]-3-hydroxybicyclo[2.2.2]octan-1-yl}-N,3-dimethyl-1,2-oxazole-5-carboxamide], the EC50 is reported as less than 50 nM.
With `CCOC(=O)c1ccnc(C(=O)NC23CC(NC(=O)COc4ccc(Cl)c(F)c4)(C2)C3)c1` [Compound 204, ethyl 2-({3-[2-(4-chloro-3-fluorophenoxy)acetamido]bicyclo[1.1.1]pentan-1-yl}carbamoyl)pyridine-4-carboxylate] the EC50 was 50 to 250 nM.
`O=C(COc1ccc(Cl)c(F)c1)NC12CC(NC(=O)c3ccc(OC(F)F)nc3)(C1)C2` [Compound 440, N-{3-[2-(4-chloro-3-fluorophenoxy)acetamido]bicyclo[1.1.1]pentan-1-yl}-6-(difluoromethoxy)pyridine-3-carboxamide] gave an EC50 of 50 to 250 nM.
With `O=C(COc1ccc(Cl)c(F)c1)NC12CCC(NC(=O)c3ccc(CO)cn3)(CC1)C[C@@H]2O` [Compound 753, N-{(3S)-4-[2-(4-chloro-3-fluorophenoxy)acetamido]-3-hydroxybicyclo[2.2.2]octan-1-yl}-5-(hydroxymethyl)pyridine-2-carboxamide] the EC50 was 250 to 1000 nM.
Molecule `CCc1cc(C(=O)NC23CC(NC(=O)COc4ccc(Cl)c(F)c4)(C2)C3)n(C)n1` [Compound 254, N-{3-[2-(4-chloro-3-fluorophenoxy)acetamido]bicyclo[1.1.1]pentan-1-yl}-3-ethyl-1-methyl-1H-pyrazole-5-carboxamide] has an EC50 of less than 50 nM.
Molecule `CCc1cc(C(=O)NC23CCC(NC(=O)COc4ccc(Cl)c(F)c4)(CC2)[C@@H](O)C3)no1` [Compound 668, N-{(3S)-4-[2-(4-chloro-3-fluorophenoxy)acetamido]-3-hydroxybicyclo[2.2.2]octan-1-yl}-5-ethyl-1,2-oxazole-3-carboxamide] has an EC50 of less than 50 nM.
For `O=C(COc1ccc(Cl)c(F)c1)NC12CC(NC(=O)c3ccc4nccn4c3)(C1)C2` [Compound 811, N-{3-[2-(4-chloro-3-fluorophenoxy)acetamido]bicyclo[1.1.1]pentan-1-yl}imidazo[1,2-a]pyridine-6-carboxamide], the EC50 was greater than 2000 nM.
Molecule `COc1cc(C(=O)NC23CC(NC(=O)COc4ccc(Cl)c(Cl)c4)(C2)C3)on1` [Compound 709, N-{3-[2-(3,4-dichlorophenoxy)acetamido]bicyclo[1.1.1]pentan-1-yl}-3-methoxy-1,2-oxazole-5-carboxamide] has an EC50 of 50 to 250 nM.
For `O=C(COc1ccc(Cl)c(F)c1)NC12CCC(NC(=O)c3cccc(O)n3)(CC1)CC2O` (stereo not drawn) [Compound 943, N-{4-[2-(4-chloro-3-fluorophenoxy)acetamido]-3-hydroxybicyclo[2.2.2]octan-1-yl}-6-hydroxypyridine-2-carboxamide], the EC50 was 50 to 250 nM.
`O=C(COc1ccc(Cl)cc1)NC12CC(Nc3nnc(-c4ccc(Cl)cc4)o3)(C1)C2` [Compound 264, 2-(4-chlorophenoxy)-N-(3-{[5-(4-chlorophenyl)-1,3,4-oxadiazol-2-yl]amino}bicyclo[1.1.1]pentan-1-yl)acetamide] gave an EC50 of 250 to 1000 nM.
`Cc1cnc2c(C(=O)NC34CC(NC(=O)COc5ccc(Cl)c(F)c5)(C3)C4)cnn2c1` [Compound 806, N-{3-[2-(4-chloro-3-fluorophenoxy)acetamido]bicyclo[1.1.1]pentan-1-yl}-6-methylpyrazolo[1,5-a]pyrimidine-3-carboxamide] showed an EC50 greater than 2000 nM.
`O=C(COc1ccc(Cl)c(F)c1)NC12CC(NC(=O)c3ccco3)(C1)C2` [Compound 304, N-{3-[2-(4-chloro-3-fluorophenoxy)acetamido]bicyclo[1.1.1]pentan-1-yl}furan-2-carboxamide] gave an EC50 of 250 to 1000 nM.
With `O=C(COc1ccc(Cl)c(F)c1)NC12CCC(NC(=O)c3ccsc3)(CC1)CC2O` (stereo not drawn) [Compound 591, N-{4-[2-(4-chloro-3-fluorophenoxy)acetamido]-3-hydroxybicyclo[2.2.2]octan-1-yl}thiophene-3-carboxamide] the EC50 was 50 to 250 nM.
With `O=C(COc1ccc(Cl)c(F)c1)NC12CCC(NC(=O)c3ccccn3)(CC1)[C@@H](O)C2` [Compound 588, N-{(2S)-4-[2-(4-chloro-3-fluorophenoxy)acetamido]-2-hydroxybicyclo[2.2.2]octan-1-yl}pyridine-2-carboxamide] the EC50 was less than 50 nM.
Molecule `Cc1cccc(C(=O)NC23CC(NC(=O)COc4ccc(Cl)c(F)c4)(C2)C3)n1` [Compound 891, N-{3-[2-(4-chloro-3-fluorophenoxy)acetamido]bicyclo[1.1.1]pentan-1-yl}-6-methylpyridine-2-carboxamide] has an EC50 of 50 to 250 nM.
With `Cc1nn(C)c(C(=O)NC23CCC(NC(=O)COc4ccc(Cl)c(F)c4)(CC2)C(O)C3)c1F` (stereo not drawn) [Compound 517, N-{4-[2-(4-chloro-3-fluorophenoxy)acetamido]-3-hydroxybicyclo[2.2.2]octan-1-yl}-4-fluoro-1,3-dimethyl-1H-pyrazole-5-carboxamide] the EC50 was 50 to 250 nM.
`O=C(COc1ccc(Cl)c(F)c1)NC12CCC(NC(=O)c3cc(C4CC4)no3)(CC1)C(O)C2` (stereo not drawn) [Compound 331, N-{4-[2-(4-chloro-3-fluorophenoxy)acetamido]-2-hydroxybicyclo[2.2.2]octan-1-yl}-3-cyclopropyl-1,2-oxazole-5-carboxamide] gave an EC50 of 250 to 1000 nM.
For `O=C(COc1ccc(Cl)c(F)c1)NC12CC(Nc3ccnc4cc(Cl)ccc34)(C1)C2` [Compound 384, 2-(4-chloro-3-fluorophenoxy)-N-{3-[(7-chloroquinolin-4-yl)amino]bicyclo[1.1.1]pentan-1-yl}acetamide], the EC50 was less than 50 nM.
